Where “and” joins values, the source holds several entries; their conditions need not be identical. Equal entries are not always repeated.
Legend:
[1] = test system: patients with major depressive disorder; test: Phase 2 randomized double-blind trial, dextromethorphan-bupropion (45 mg/105 mg tablet) vs bupropion (105 mg tablet), twice daily, 6 weeks (NCT03595579)
Protocol: This randomized, double-blind, multicenter, parallel-group trial evaluated dextromethorphan-bupropion versus the active comparator sustained-release bupropion in patients 18-65 years old with a diagnosis of major depressive disorder of moderate or greater severity. Patients were randomly assigned to receive either dextromethorphan-bupropion (45 mg/105 mg tablet) or bupropion (105 mg tablet), once daily for the first 3 days and twice daily thereafter, for a total of 6 weeks.
This was a 6-week randomized, double-blind, active-controlled phase 2 trial conducted at four sites in the United States from May 2018 to December 2018. The trial used bupropion, an approved antidepressant, as the control because it is a component of dextromethorphan-bupropion.
The clinical review utilized only documentation collected by the sites at screening and baseline, including a complete medical history and clinician- and patient-reported outcome measures (described below, under Efficacy Assessments). […] In order to reduce investigator expectation bias and therefore placebo response, sites were blinded to the primary efficacy variable and the presence of an independent assessor. Sites were provided a blinded protocol that presented the trial as a safety study with exploratory efficacy assessments. Detailed discussion of the efficacy analysis was limited to the statistical analysis plan, which was not provided to the sites.
The study evaluated patients 18-65 years of age with a confirmed diagnosis of major depressive disorder and a current major depressive episode of moderate or greater severity. The diagnosis was established using the DSM-5 criteria for major depressive disorder without psychotic features, based on the Structured Clinical Interview for DSM-5, Clinical Trials Version, and the site investigator's rating of a score ≥25 on the Montgomery-Åsberg Depression Rating Scale (MADRS) and a score ≥4 on the Clinical Global Impressions severity scale (CGI-S). Confirmation of the diagnosis of major depressive disorder and a current major depressive episode of moderate or greater severity was performed by a blinded independent assessor based on a clinical review prior to database lock and study unblinding.
The screening period was up to 4 weeks to allow for any needed taper and washout of prior medications.
Participants were randomized in a 1:1 ratio to receive oral treatment with either dextromethorphan-bupropion or sustained-release bupropion. In order to blind site investigators to the independent confirmation of diagnosis, all patients deemed eligible by the site investigators were randomized to receive study medication and were included in the safety population. As prespecified, patients whose diagnosis or severity was not confirmed by the independent assessor were excluded from the efficacy population.
Dextromethorphan-bupropion tablets and bupropion tablets were identical in appearance. The randomization schedule was computer generated using a permuted block algorithm that randomly allocated study drug to randomization numbers.
The double-blind treatment period was 6 weeks. Patients received their assigned study medication, dextromethorphan-bupropion (45 mg/105 mg tablet) or bupropion (105 mg tablet), once daily for the first 3 days and twice daily thereafter. The bupropion dosage in the control arm (210 mg daily) was selected to match the dosage incorporated in dextromethorphan-bupropion, enabling an appropriate comparison. During the treatment period, patients tracked their mood daily by completing a daily visual analogue mood scale. Study visits occurred 1, 2, 3, 4, and 6 weeks after the baseline visit. A safety follow-up visit occurred at week 7, 1 week after the last dose of study medication. There were no formal discontinuation criteria; patients were free to withdraw consent for any reason, and investigators were free to remove a patient from the study for any safety-related reason.

individuals with MDD = conditions: switch strategy; cited from earlier work
patients with depression = conditions: 150 mg/day or 300 mg/day, week 8; cited from earlier work
[2] = Pharmacokinetics of dextromethorphan, bupropion and metabolites after administration of the subject combination

Structure (SMILES): CC(NC(C)(C)C)C(=O)c1cccc(Cl)c1 (racemic) [bupropion]
- Adverse event leading to discontinuation of study drug, patients ([1]; human, in vivo, 6 weeks): 12.5%
- Anxiety, patients ([1]; human, in vivo, 6 weeks): 2.1%
- Any adverse event, patients ([1]; human, in vivo, 6 weeks): 64.6%
- Decreased appetite, patients ([1]; human, in vivo, 6 weeks): 8.3%
- Dizziness, patients ([1]; human, in vivo, 6 weeks): 4.2%
- Dry mouth, patients ([1]; human, in vivo, 6 weeks): 8.3%
- Nausea, patients ([1]; human, in vivo, 6 weeks): 12.5%
- Serious adverse event, patients ([1]; human, in vivo, 6 weeks): 0.0%
- Severe adverse event, patients ([1]; human, in vivo, 6 weeks): 2.1%
- CGI-S score, change from baseline, LS mean ([1]; overall, weeks 1-6): −1.0
- MADRS-6 score, change from baseline, LS mean ([1]; overall, weeks 1-6): −6.6 points
- QIDS-SR, LS mean change from baseline ([1]; overall, weeks 1-6): −4.8
- Patients with positive response on item 1 of the C-SSRS (wish to be dead) ([1]; week 1): five
- CGI-S score, change from baseline, LS mean ([1]; week 2): −0.9
- Clinical response (≥50% decrease in MADRS score from baseline), patients ([1]; week 2): 27.0%
- MADRS total score, change from baseline, LS mean ([1]; week 2): −7.8 points
- MADRS-6 score, change from baseline, LS mean ([1]; week 2): −6.0
- Remission (MADRS score ≤10), patients ([1]; week 2): 2.7% and 3%
- CGI-S score, change from baseline, LS mean ([1]; week 6): −1.5
- Clinical response (≥50% decrease in MADRS score from baseline), patients ([1]; week 6): 40.5%
- MADRS total score, change from baseline, LS mean ([1]; week 6): −12.1 points
- MADRS-6 score, change from baseline, LS mean ([1]; week 6): −8.7
- Patients with positive response on item 1 of the C-SSRS (wish to be dead) ([1]; week 6): one
- Remission (MADRS score ≤10), patients ([1]; week 6): 16.2%
- Remission on the QIDS-SR (score ≤5), patients ([1]; week 6): 21.6%
- Reduction from baseline in MADRS total score ([1]; week 6, bupropion arm 210 mg/day): 12 points
- Remission rate, second line treatment following non-remission with an SSRI (individuals with MDD): about 25%
- Reduction from baseline in Hamilton Depression Rating Scale (HAM-D) score (patients with depression): approximately 10 points

Structure (SMILES): COc1ccc2c(c1)[C@]13CCCC[C@@H]1[C@H](C2)N(C)CC3 [dextromethorphan]
- Increase of mean elimination half-life vs dextromethorphan given without bupropion ([2]; 8 consecutive days of the subject combination, extensive metabolizers): approximately 3 fold
- AUC0-12 decrease when administered with food ([2]; subject combination with food): 14%
- Cmax change when administered with food ([2]; subject combination with food): unchanged

Structure (SMILES): CN[C@H]1CC[C@@H](c2ccc(Cl)c(Cl)c2)c2ccccc21 [sertraline]
- Remission rate, second line treatment following non-remission with an SSRI (individuals with MDD): about 25%

Structure (SMILES): COc1ccc(C(CN(C)C)C2(O)CCCCC2)cc1 (stereo not drawn) [venlafaxine]
- Remission rate, second line treatment following non-remission with an SSRI (individuals with MDD): about 25%
